Data on 48 molecules can be found in paper PMC11995724, “Antibiotic target discovery by integrated phenotypic and activity-based profiling of electrophilic fragments” (Cell chemical biology, 2025).

Counter-ions that a name gives are not always drawn.

This series is described as follows: in vitro. To be noted: human, hek293t cells.
In general, viability refers to a read-out of living cells in per cent, often relative to untreated cells. Turning to `C=CC(=O)NCCC(=O)N1CCc2cc(C)c([N+](=O)[O-])cc21` [3-F08, N-[3-(5-methyl-6-nitro-2,3-dihydro-1H-indol-1-yl)-3-oxopropyl]prop-2-enamide], the viability at 48 h, 25 µM is 82.7%.

In the case of `O=C(CCl)N(CC1=CCCOC1)Cc1ccccc1` [7-J20, N-benzyl-2-chloro-N-[(5,6-dihydro-2H-pyran-3-yl)methyl]acetamide], the viability at 48 h, 25 µM came to 0.586%.

Consider `C=CC(=O)NC1Cc2ccccc2C1=O` (stereo not drawn) [1-H21, N-(1-oxo-2,3-dihydro-1H-inden-2-yl)prop-2-enamide], for which the viability at 48 h, 25 µM is 156%.

As to `N#CC(=CN1CCN(c2ccccc2)CC1)C(=O)Nc1ccc(F)cc1` [8-C20, 2-cyano-N-(4-fluorophenyl)-3-(4-phenylpiperazin-1-yl)prop-2-enamide], the viability at 48 h, 25 µM came to 72.5%.

Turning to `CC(Cl)C(=O)N1CCOCC1c1nc(-c2cccs2)no1` (stereo not drawn) [7-B17, 2-chloro-1-{3-[3-(thiophen-2-yl)-1,2,4-oxadiazol-5-yl]morpholin-4-yl}propan-1-one], the viability at 48 h, 25 µM is 75.7%.

Regarding `C=CC(=O)N[C@H]1C[C@H](C)S(=O)(=O)c2sccc21` [3-C14, N-[(2S,4S)-2-methyl-1,1-dioxo-2H,3H,4H-1lambda6-thieno[2,3-b]thiopyran-4-yl]prop-2-enamide], the viability at 48 h, 25 µM stood at 84.1%.

With `C=CC(=O)N1CCC(C(=O)N2CCc3ccc([N+](=O)[O-])cc32)CC1` [1-C06, 1-[4-(6-nitro-2,3-dihydro-1H-indole-1-carbonyl)piperidin-1-yl]prop-2-en-1-one], the viability at 48 h, 25 µM is 49.9%.

Turning to `C=CC(=O)NCc1nc(C2CC2)oc1C` [2-P13, N-[(2-cyclopropyl-5-methyl-1,3-oxazol-4-yl)methyl]prop-2-enamide], the viability at 48 h, 25 µM is 52.6%.

Consider `CC(Cl)C(=O)N(C)CCOc1ccc(Cl)cc1` (stereo not drawn) [6-C12, 2-chloro-N-[2-(4-chlorophenoxy)ethyl]-N-methylpropanamide], for which the viability at 48 h, 25 µM turned out to be 81.3%.

For the molecule `CC(Cl)C(=O)N1CC(C(=O)N2CCN(C)CC2)Oc2ccccc21` (stereo not drawn) [7-A20, 2-chloro-1-[2-(4-methylpiperazine-1-carbonyl)-3,4-dihydro-2H-1,4-benzoxazin-4-yl]propan-1-one], the viability at 48 h, 25 µM was 77.1%.

For `CC(Cl)C(=O)NCCN(C)S(=O)(=O)c1cccs1` (stereo not drawn) [7-F05, 2-chloro-N-[2-(N-methylthiophene-2-sulfonamido)ethyl]propanamide], the viability at 48 h, 25 µM was determined as 97.9%.

Take `C=CC(=O)N(Cc1sc(C)nc1C)[C@@H](C)[C@H]1COC(C)(C)O1` [1-B15, N-[(1S)-1-[(4S)-2,2-dimethyl-1,3-dioxolan-4-yl]ethyl]-N-[(2,4-dimethyl-1,3-thiazol-5-yl)methyl]prop-2-enamide]: the viability at 48 h, 25 µM came out at 90%.

For the molecule `Cn1cc(C(=O)CCl)nn1` [10-M19, 2-chloro-1-(1-methyl-1H-1,2,3-triazol-4-yl)ethan-1-one], the viability at 48 h, 25 µM was found to be 68.1%.

As for `CC(NC(=O)C(C#N)=Cc1ccco1)c1cccc(-n2ccnc2)c1` (stereo not drawn) [9-H04, 2-cyano-3-(furan-2-yl)-N-{1-[3-(1H-imidazol-1-yl)phenyl]ethyl}prop-2-enamide], the viability at 48 h, 25 µM was determined as 127%.

On to `Cc1noc(C)c1C(C)CNC(=O)C(C)Cl` (stereo not drawn) [6-P19, 2-chloro-N-[2-(3,5-dimethyl-1,2-oxazol-4-yl)propyl]propanamide], for which the viability at 48 h, 25 µM was 115%.

As for `O=C(CCl)Nc1cccc(OCc2ccccc2)c1` [5-I04, N-[3-(benzyloxy)phenyl]-2-chloroacetamide], the viability at 48 h, 25 µM amounted to 0.885%.

For the molecule `Nc1c(C(=O)CCl)c(=O)[nH]c(=O)n1Cc1ccccc1` [10-J18, 6-amino-1-benzyl-5-(2-chloroacetyl)-1,2,3,4-tetrahydropyrimidine-2,4-dione], the viability at 48 h, 25 µM was found to be 88.2%.

As for `Cc1ccc(C(=O)c2c(NC(=O)CCl)sc3c2CCCC3)cc1` [6-A12, 2-chloro-N-[3-(4-methylbenzoyl)-4,5,6,7-tetrahydro-1-benzothiophen-2-yl]acetamide], the viability at 48 h, 25 µM came out at 14%.

`COc1cc(C=C(C#N)C(=O)Nc2nccs2)cc(OC)c1` [9-J03, 2-cyano-3-(3,5-dimethoxyphenyl)-N-(1,3-thiazol-2-yl)prop-2-enamide]: the viability at 48 h, 25 µM came out at 104%.

On to `CCc1nc2cc(CNC(=O)C(C)Cl)ccc2n1C1CC1` (stereo not drawn) [6-N09, 2-chloro-N-[(1-cyclopropyl-2-ethyl-1H-1,3-benzodiazol-5-yl)methyl]propanamide], for which the viability at 48 h, 25 µM came to 102%.

On to `COc1ccc(C=C(C#N)C(=O)Nc2cccc(C(F)(F)F)c2)cc1` [8-A03, 2-cyano-3-(4-methoxyphenyl)-N-[3-(trifluoromethyl)phenyl]prop-2-enamide], for which the viability at 48 h, 25 µM turned out to be 72.2%.

Regarding `CCN(C(=O)CCl)c1c(N)n(Cc2ccccc2)c(=O)[nH]c1=O` [4-P10, N-(6-amino-1-benzyl-2,4-dioxo-1,2,3,4-tetrahydropyrimidin-5-yl)-2-chloro-N-ethylacetamide], the viability at 48 h, 25 µM is 65.4%.

Turning to `C=CC(=O)NCc1nc2cc(F)ccc2o1` [3-N20, N-[(5-fluoro-1,3-benzoxazol-2-yl)methyl]prop-2-enamide], the viability at 48 h, 25 µM was 84.7%.

Turning to `C=CC(=O)N1CC(NC(=O)c2ccoc2CC)C(C)(C)C1` (stereo not drawn) [1-L22, N-[4,4-dimethyl-1-(prop-2-enoyl)pyrrolidin-3-yl]-2-ethylfuran-3-carboxamide], the viability at 48 h, 25 µM was found to be 71.3%.

Take `C=CC(=O)N(Cc1c(F)cc(C)cc1Cl)C1CCCOCC1` (stereo not drawn) [2-A13, N-[(2-chloro-6-fluoro-4-methylphenyl)methyl]-N-(oxepan-4-yl)prop-2-enamide]: the viability at 48 h, 25 µM was found to be 99%.

As to `N#CC(=Cc1ccc(Cl)cc1)C(=O)NCc1ccccc1` [9-G13, N-benzyl-3-(4-chlorophenyl)-2-cyanoprop-2-enamide], the viability at 48 h, 25 µM came out at 104%.

As for `O=C(CCl)Nc1cc(-n2nnnc2C2CC2)ccc1F` [6-E09, 2-chloro-N-[5-(5-cyclopropyl-1H-1,2,3,4-tetrazol-1-yl)-2-fluorophenyl]acetamide], the viability at 48 h, 25 µM is 2.11%.

For the molecule `C=CC(=O)N1CCC(C(=O)NC2(c3ccc(F)cc3F)CCC2)CC1` [3-M04, N-[1-(2,4-difluorophenyl)cyclobutyl]-1-(prop-2-enoyl)piperidine-4-carboxamide], the viability at 48 h, 25 µM was determined as 97.5%.

As for `O=C(CCl)Nc1cccnn1` [6-O17, 2-chloro-N-(pyridazin-3-yl)acetamide hydrochloride], the viability at 48 h, 25 µM was 118%.

In the case of `CC(Cl)C(=O)N1CCc2sccc2C1c1cccs1` (stereo not drawn) [7-K07, 2-chloro-1-[4-(thiophen-2-yl)-4H,5H,6H,7H-thieno[3,2-c]pyridin-5-yl]propan-1-one], the viability at 48 h, 25 µM came out at 87.1%.

Take `C=CC(=O)NC(c1nccs1)C(F)(F)F` (stereo not drawn) [2-N07, N-[2,2,2-trifluoro-1-(1,3-thiazol-2-yl)ethyl]prop-2-enamide]: the viability at 48 h, 25 µM was 84.1%.

Take `CC(Cl)C(=O)Nc1ccc2c(c1)ncn2CCN(C)C` (stereo not drawn) [6-P15, 2-chloro-N-{1-[2-(dimethylamino)ethyl]-1H-1,3-benzodiazol-5-yl}propanamide]: the viability at 48 h, 25 µM amounted to 113%.

`CC(Cl)C(=O)N1CCN(Cc2cnn(-c3ccccc3)c2)CC1` (stereo not drawn) [7-F13, 2-chloro-1-{4-[(1-phenyl-1H-pyrazol-4-yl)methyl]piperazin-1-yl}propan-1-one]: the viability at 48 h, 25 µM came to 93%.

With `O=C(CCl)Nc1cc(-c2ccccc2)nn1-c1ccccc1` [4-A20, 2-chloro-N-(1,3-diphenyl-1H-pyrazol-5-yl)acetamide], the viability at 48 h, 25 µM turned out to be 0.296%.

For `CSc1nsc(NC(=O)CCl)n1` [4-C13, 2-chloro-N-[3-(methylsulfanyl)-1,2,4-thiadiazol-5-yl]acetamide], the viability at 48 h, 25 µM came to 63.6%.

With `Cc1ccc(C=C(C#N)C(=O)NCc2ccco2)o1` [8-P19, 2-cyano-N-[(furan-2-yl)methyl]-3-(5-methylfuran-2-yl)prop-2-enamide], the viability at 48 h, 25 µM was determined as 95.3%.

In the case of `C=CC(=O)NCCC(=O)N1CCC(C)(C)S(=O)(=O)CC1` [3-G19, N-[3-(7,7-dimethyl-1,1-dioxo-1lambda6,4-thiazepan-4-yl)-3-oxopropyl]prop-2-enamide], the viability at 48 h, 25 µM worked out at 41.2%.

Take `CCCn1c(C)cc(C=C(C#N)C(=O)Nc2cccc(C#N)c2)c1C` [8-N19, 2-cyano-N-(3-cyanophenyl)-3-(2,5-dimethyl-1-propyl-1H-pyrrol-3-yl)prop-2-enamide]: the viability at 48 h, 25 µM was 107%.

Consider `O=C(CCl)NCC1(c2ccccc2)CCC1` [4-O19, 2-chloro-N-[(1-phenylcyclobutyl)methyl]acetamide], for which the viability at 48 h, 25 µM was determined as 0.976%.

In the case of `CC(Cl)C(=O)Nc1ccc(Cl)c(S(=O)(=O)N(C)C)c1` (stereo not drawn) [5-G21, 2-chloro-N-[4-chloro-3-(dimethylsulfamoyl)phenyl]propanamide], the viability at 48 h, 25 µM amounted to 78.5%.

On to `CCOc1ccc(C(=O)C(C)Cl)cc1` (stereo not drawn) [10-G06, 2-chloro-1-(4-ethoxyphenyl)propan-1-one], for which the viability at 48 h, 25 µM was found to be 89.3%.

For `Cc1cc(C(=O)CCl)c(C)s1` [10-K16, 2-chloro-1-(2,5-dimethylthiophen-3-yl)ethan-1-one], the viability at 48 h, 25 µM turned out to be 0.769%.

For `CC1CCCN1C(=O)CNC(=O)CCl` (stereo not drawn) [7-L12, 2-chloro-N-[2-(2-methylpyrrolidin-1-yl)-2-oxoethyl]acetamide], the viability at 48 h, 25 µM stood at 83.6%.

In the case of `CC(Cl)C(=O)Nc1ccc([N+](=O)[O-])cc1Cl` (stereo not drawn) [4-J17, 2-chloro-N-(2-chloro-4-nitrophenyl)propanamide], the viability at 48 h, 25 µM was determined as 85.5%.

In the case of `O=C(CCl)NCc1ccccc1OC(F)(F)F` [4-L21, 2-chloro-N-{[2-(trifluoromethoxy)phenyl]methyl}acetamide], the viability at 48 h, 25 µM turned out to be 0.623%.

`CCN(CC)C(=O)c1cccc(NC(=O)CCl)c1` [5-I03, 3-(2-chloroacetamido)-N,N-diethylbenzamide]: the viability at 48 h, 25 µM came out at 0.175%.

Regarding `CC(=O)Nc1ccc(C=C(C#N)C(=O)Nc2c(C)cc(C)cc2C)cc1` [8-M13, 2-cyano-3-(4-acetamidophenyl)-N-(2,4,6-trimethylphenyl)prop-2-enamide], the viability at 48 h, 25 µM was found to be 87.7%.

Turning to `O=C(CCl)NCc1ccn(Cc2ccccc2)n1` [7-H10, N-[(1-benzyl-1H-pyrazol-3-yl)methyl]-2-chloroacetamide], the viability at 48 h, 25 µM stood at 0.654%.
